In brackets after ≈: the same amount, converted by molar mass.
Tests used:
Assay type in all cases: cell-based
Salm. typhi 0901 = assay: microbe, parasite or virus in culture; conditions: Salmonella enterica, 18 h; Table 2; Salm. typhi 0901 (Gram negative)
Experimental: (§1) After sterilisation at 120° C., the pH was 6.8.
(§2) The minimum inhibitory concentrations (M.I.C.) were determined by dilution of the test compounds in this mixture, the concentration ranging from 0.05 to 100 μg/cm^3 in a geometric progression with a factor of 2.
(§3) The inoculation of the dishes was carried out by means of a multiple inoculator with 10^-3 dilutions of 18 hour old broth cultures.
(§4) The dishes were placed in an oven at 37° C. and the readings were taken afer an incubation time of 18 hours. The M.I.C. was taken as the lowest concentration which inhibited a culture.

B. subtilis = assay: M.I.C. in vitro, nutrient agar dilution; conditions: Bacillus subtilis, 18 h; Table 2; B. subtilis (Gram positive); read-out: M.I.C.
Experimental: as §1, §2, §3, §4

Klebs. pneum. 10.031 = assay: M.I.C. in vitro, nutrient agar dilution; conditions: 18 h; Table 2; Klebs. pneum. 10.031 (Gram negative); read-out: M.I.C.
Experimental: as §1, §2, §3, §4

Strepto D.M. 19 = assay: M.I.C. in vitro, nutrient agar dilution; conditions: 18 h; Table 2; Strepto D.M. 19 (Gram positive); read-out: M.I.C.
Experimental: as §1, §2, §3, §4

Staph. 209 P = assay: M.I.C. in vitro, nutrient agar dilution; conditions: 18 h; Table 2; Staph. 209 P (Gram positive); read-out: M.I.C.
Experimental: as §1, §2, §3, §4

Serratia = assay: M.I.C. in vitro, nutrient agar dilution; conditions: 18 h, Table 2, Berratia (Gram negative), read-out: M.I.C.
Experimental: as §1, §2, §3, §4

S. oranienburg 1066 = assay: M.I.C. in vitro, nutrient agar dilution; conditions: Salmonella enterica, 18 h; Table 2; S. oranienburg 1066 (Gram negative); read-out: M.I.C.
Experimental: as §1, §2, §3, §4

Pr. morganii A.236 = assay: M.I.C. in vitro, nutrient agar dilution; conditions: Morganella morganii, 18 h; Table 2; Pr. morganii A.236 (Gram negative); read-out: M.I.C.
Experimental: as §1, §2, §3, §4

Sh. sonnei I.P.S. = assay: M.I.C. in vitro, nutrient agar dilution; conditions: Shigella sonnei, 18 h; Table 2; Sh. sonnei I.P.S. (Gram negative); read-out: M.I.C.
Experimental: as §1, §2, §3, §4

Esch. coli 95 I.S.M. = assay: M.I.C. in vitro, nutrient agar dilution; conditions: Escherichia coli, 18 h; Table 2; Esch. coli 95 I.S.M. (Gram negative); read-out: M.I.C.
Experimental: as §1, §2, §3, §4

Ps. aeruginosa A.22 = assay: M.I.C. in vitro, nutrient agar dilution; conditions: Pseudomonas aeruginosa, 18 h; Table 2; Ps. aeruginosa A.22 (Gram negative); read-out: M.I.C.
Experimental: as §1, §2, §3, §4

Pr. vulgaris 12-53 = assay: M.I.C. in vitro, nutrient agar dilution; conditions: Proteus vulgaris, 1253, 18 h; Table 2; Pr. vulgaris 12-53 (Gram negative); read-out: M.I.C.
Experimental: as §1, §2, §3, §4

Pr. mirabilis Nig = assay: M.I.C. in vitro, nutrient agar dilution; conditions: Proteus mirabilis, 18 h; Table 2; Pr. mirabilis Nig (Gram negative); read-out: M.I.C.
Experimental: as §1, §2, §3, §4

Bord. bronchis. 4.617 = assay: M.I.C. in vitro, nutrient agar dilution; conditions: 18 h; Table 2; Bord. bronchis. 4.617 (Gram negative); read-out: M.I.C.
Experimental: as §1, §2, §3, §4

S. enteritidis Danysz = assay: M.I.C. in vitro, nutrient agar dilution; conditions: Salmonella enterica, 18 h; Table 2; S. enteritidis Danysz (Gram negative); read-out: M.I.C.
Experimental: as §1, §2, §3, §4

Esch. coli 111 B4 = assay: M.I.C. in vitro, nutrient agar dilution; conditions: Escherichia coli, 18 h; Table 2; Esch. coli 111 B4 (Gram negative)
Experimental: as §1, §2, §3, §4

Esch. coli 54.127 O.M.S. = assay: M.I.C. in vitro, nutrient agar dilution; conditions: Escherichia coli, 18 h; Table 2; Esch. coli 54.127 O.M.S. (Gram negative); read-out: M.I.C.
Experimental: as §1, §2, §3, §4

Staph. 9.144 = assay: M.I.C. in vitro, nutrient agar dilution; conditions: 18 h; Table 2; Staph. 9.144 (Gram positive); read-out: M.I.C.
Experimental: as §1, §2, §3, §4

Ps. aeruginosa 72.345 = assay: M.I.C. in vitro, nutrient agar dilution; conditions: Pseudomonas aeruginosa, 18 h; Table 2; Ps. aeruginosa 72.345 (Gram negative); read-out: M.I.C.
Experimental: as §1, §2, §3, §4

Providentia 0223 = assay: M.I.C. in vitro, nutrient agar dilution; conditions: 18 h; Table 2; Providentia 0223 (Gram negative); read-out: M.I.C.
Experimental: as §1, §2, §3, §4

Arizona 6.211 = assay: M.I.C. in vitro, nutrient agar dilution; conditions: 18 h; Table 2; Arizona 6.211 (Gram negative); read-out: M.I.C.
Experimental: as §1, §2, §3, §4

Strepto A 561 = assay: M.I.C. in vitro, nutrient agar dilution; conditions: 18 h; Table 2; Strepto A 561 (Gram positive)
Experimental: as §1, §2, §3, §4

| SMILES | MIC (Salm. typhi 0901) | MIC (B. subtilis) | MIC (Klebs. pneum. 10.031) | MIC (Strepto D.M. 19) | MIC (Staph. 209 P) | MIC (Serratia) | MIC (S. oranienburg 1066) | MIC (Pr. morganii A.236) | MIC (Sh. sonnei I.P.S.) | MIC (Esch. coli 95 I.S.M.) | MIC (Ps. aeruginosa A.22) | MIC (Pr. vulgaris 12-53) | MIC (Pr. mirabilis Nig) | MIC (Bord. bronchis. 4.617) | MIC (S. enteritidis Danysz) | MIC (Esch. coli 111 B4) | MIC (Esch. coli 54.127 O.M.S.) | MIC (Staph. 9.144) | MIC (Ps. aeruginosa 72.345) | MIC (Providentia 0223) | further results |
| --- | --- | --- | --- | --- | --- | --- | --- | --- | --- | --- | --- | --- | --- | --- | --- | --- | --- | --- | --- | --- | --- |
| CCn1cc(C(=O)O)c(=O)c2cc(Cl)c(N3CCN(CCO)CC3)cc21 [Example 4, 6-chloro-1-ethyl-7-[4-(β-hydroxyethyl)-piperazinyl]-4-oxo-1,4-dihydro-quinoline-3-carboxylic acid] | 3.1 µg/mL (≈ 8.16 µM) | 6.2 µg/mL (≈ 16.3 µM) | 0.4 µg/mL (≈ 1.05 µM) | 6.2 µg/mL (≈ 16.3 µM) | 0.4 µg/mL (≈ 1.05 µM) | 25 µg/mL (≈ 65.8 µM) | 25 µg/mL (≈ 65.8 µM) | 1.6 µg/mL (≈ 4.21 µM) | 0.8 µg/mL (≈ 2.11 µM) | 1.6 µg/mL (≈ 4.21 µM) | 12.5 µg/mL (≈ 32.9 µM) | 1.6 µg/mL (≈ 4.21 µM) | 3.1 µg/mL (≈ 8.16 µM) | 6.2 µg/mL (≈ 16.3 µM) | 3.1 µg/mL (≈ 8.16 µM) | 3.1 µg/mL (≈ 8.16 µM) | 3.1 µg/mL (≈ 8.16 µM) | 0.4 µg/mL (≈ 1.05 µM) | 12.5 µg/mL (≈ 32.9 µM) | 25 µg/mL (≈ 65.8 µM) | MIC (Arizona 6.211): 1.6 µg/mL (≈ 4.21 µM); MIC (Strepto A 561): 6.2 µg/mL (≈ 16.3 µM) |
| CCn1cc(C(=O)O)c(=O)c2ccc(N3CCN(C)CC3)cc21 [Example T1, 1-ethyl-7-(4-methylpiperazinyl)-4-oxo-1,4-dihydro-quinoline-3-carboxylic acid, reference compound] | 3.1 µg/mL (≈ 9.83 µM) | 1.6 µg/mL (≈ 5.07 µM) | 0.8 µg/mL (≈ 2.54 µM) | 50 µg/mL (≈ 159 µM) | 3.1 µg/mL (≈ 9.83 µM) | 12.5 µg/mL (≈ 39.6 µM) | > 100 µg/mL | 0.8 µg/mL (≈ 2.54 µM) | 1.6 µg/mL (≈ 5.07 µM) | 0.8 µg/mL (≈ 2.54 µM) | 12.5 µg/mL (≈ 39.6 µM) | 3.1 µg/mL (≈ 9.83 µM) | 3.1 µg/mL (≈ 9.83 µM) | 25 µg/mL (≈ 79.3 µM) | 3.1 µg/mL (≈ 9.83 µM) | 1.6 µg/mL (≈ 5.07 µM) | 1.6 µg/mL (≈ 5.07 µM) | 6.2 µg/mL (≈ 19.7 µM) | 12.5 µg/mL (≈ 39.6 µM) | 100 µg/mL (≈ 317 µM) | MIC (Arizona 6.211): 1.6 µg/mL (≈ 5.07 µM); MIC (Strepto A 561): 50 µg/mL (≈ 159 µM) |

— patent US4292317A, “1,4-Dihydro-quinoline-3-carboxylic acid derivatives, process for their preparation and compositions containing them” (Laboratorie Roger Bellon, priority 1977, dated 1981)
